In patent US20190100549A1, “FLAVONOIDE-TYPE COMPOUNDS BEARING AN O-RHAMNOSYL RESIDUE” (Universitaet Hamburg, priority 2016, published 2019):
Several values for one entry are separate records, joined by “and”; a condition that tells them apart may be missing. Equal entries are not always repeated.

Key:
[1] = system: lipid peroxides (C11-fluor) in NHEK cells; assay: Protection against UV-induced lipid peroxide in NHEK (C11-fluor probe, flow cytometry); assay type: cell-based, human; conditions: 100 μM, 240 mJ/cm^2 UVB (3538 mJ/cm^2 UVA)
Method: Pre-incubated NHEK were incubated with the test compound for 24 h. Then the specific fluorescence probe for the measurement of hydrogen peroxide (DHR) or lipid peroxides (C11-fluor) was added and incubated for 45 min. Irradiation occurred with in H2O2 determination UVB at 180 mJ/cm^2 (+UVA at 2839 mJ/cm^2) or UVB at 240 mJ/cm^2 (+UVA at 3538 mJ/cm^2) in lipid peroxide, respectively, using a SOL500 Sun Simulator lamp. After irradiation the cells were post-incubated for 30 min before flow-cytometry analysis.

[2] = system: procollagen I; assay: Procollagen I synthesis in NHDF (ELISA); assay type: cell-based, human; conditions: 100 μM, 72 hours
Method: (§1) Tests were performed with normal human dermal fibroblast cultures at the 8th passage. Cells were grown in DMEM supplemented with glutamine at 2 mM, penicillin at 50 U/mL and streptomycin (50 μg/mL) and 10% of fetal calf serum (FCS) at 37° C. in a 5% CO2 atmosphere.
(§2) Fibroblasts were cultured for 24 hours before the cells were incubated with the test compounds for further 72 hours. After the incubation the culture supernatants were collected in order to measure the released quantities of procollagen I, VEGF, and fibronectin by means of ELISA. Reference test compounds were vitamin C (procollagen I), PMA (VEGF), and TGF-β (fibronectin).

[3] = system: fibronectin; assay: Fibronectin synthesis in NHDF (ELISA); assay type: cell-based, human; conditions: 100 μM, 72 hours
Method: as §1, §2

[4] = system: matrix metallopeptidase 1 (MMP-1); assay: MMP-1 release in UVA-irradiated NHDF (ELISA); assay type: cell-based, human; conditions: 100 μM, 15 J/cm^2 UVA
Method: as §1
Human fibroblasts were cultured for 24 hours before the cells were pre-incubated with the test or reference compounds (dexamethasone) for another 24 hours. The medium was replaced by the irradiation medium (EBSS, CaCl2 0.264 g/L, MgClSO4 0.2 g/L) containing the test compounds) and cells were irradiated with UVA (15 J/cm^2). The irradiation medium was replaced by culture medium including again the test compounds incubated for 48 hours. After incubation the quantity of matrix metallopeptidase 1 (MMP-1) in the culture supernatant was measured using an ELISA kit.

[5] = system: STAT3; assay: STAT3 activity in HeLa-STAT3-luc cells stimulated with IFN-γ (luciferase); assay type: cell-based; conditions: +IFNγ 25 U/ml; for RLU 1 / RLU 2 / RLU 3: HeLa-STAT3-luc cells; for RLU 1: replicate well 1; for RLU 2: replicate well 2; for RLU 3: replicate well 3; for RLU specific: mean minus control; for Mean: mean of triplicate wells; for % Activation: IFNγ alone = 100% activation
Method: HeLa-STAT3-luc cells were stably transfected with the plasmid 4xM67 pTATA TK-Luc. Cells (20×10^3 cells/ml) were seeded 96-well plate the day before the assay. Then the cells were treated with the test substances for 15 min and then stimulated with IFN-γ 25 IU/ml. After 6 h, the cells were washed twice with PBS and lysed in 50 μl lysis buffer containing 25 mM Tris-phosphate (pH 7.8), 8 mM MgCl2, 1 mM DTT, 1% Triton X-100, and 7% glycerol during 15 min at RT in a horizontal shaker. Luciferase activity was measured using GloMax 96 microplate luminometer (Promega) following the instructions of the luciferase assay kit (Promega, Madison, Wis., USA). […] The experiments for each concentration of the test items were done in triplicate wells.

[6] = system: HaCaT cells; assay: Glucose uptake (2-NBDG) in HaCaT keratinocytes; assay type: cell-based; parameters: key to Measure 1 / Measure 2 / Measure 3 / Mean: total green object integrated intensity, GCU×μm2×Well; conditions: +2NBDG 50 μM, 24 h; for Measure 1 / Measure 2 / Measure 3: HaCaT cells, fluorescence; for RFU specific: mean minus control; for Mean: mean of triplicate measurements; for % Glucose uptake: Rosiglitazone 80 μM = 100%
Method: HaCaT cells (5×10^4) were seeded in 96-well black plates and incubated for 24 h. Then, medium was removed and the cells cultivated in OptiMEM, labeled with 50 μM 2-NBDG (2-[N-(7-nitrobenz-2-oxa-1,3-diazol-4-yl) amino]-2-deoxy-D-glucose and treated with the test substances or the positive control, Rosiglitazone, for 24 h. Medium was removed and the wells were carefully washed with PBS and incubated in PBS (100l/well). Finally the fluorescence was measured using the Incucyte FLR software, the data were analyzed by the total green object integrated intensity (GCU×μm2×Well) of the imaging system IncuCyte HD (Essen BioScience). The fluorescence of Rosiglitazone is taken as 100% of glucose uptake, and the glucose uptake was calculated as (% Glucose uptake)=100(T−B)/(R−B), where T (treated) is the fluorescence of test substance-treated cells, B (Basal) is the fluorescence of 2-NBDG cells and […] is the fluorescence of cells treated with Rosiglitazone.

## COc1ccc(C2CC(=O)c3c(cc(O)cc3O[C@@H]3O[C@@H](C)[C@H](O)[C@@H](O)[C@H]3O)O2)cc1O (stereo partly drawn) [HESR1, Hesperetin-5-O-α-L-rhamnoside]
[1]
  C11-fluor(AU) Mean (1/GMFI): 6.4E−04 AU
  lipid peroxide % Irradiated control: 99%
  lipid peroxide Protection %: 1%
[1]; single values
  C11-fluor(AU) 1/GMFI: 6.0E−04 AU and 6.9E−04 AU
  C11-fluor(AU) GMFI: 1671 AU and 1455 AU
[2]
  Procollagen I % Control: 118%
  Procollagen I Mean: 1968 ng/mL
[2]; single values
  Procollagen I: 1929 ng/mL and 2007 ng/mL
[3]
  Fibronectin % Control: 96%
  Fibronectin % Stimulation: −4%
  Fibronectin Mean: 5853 ng/mL
[3]; single values
  Fibronectin: 5843 ng/mL and 5864 ng/mL
[4]
  MMP-1 % Irradiated control: 116%
  MMP-1 % Protection: −25%
  Mean MMP-1: 82.2 ng/mL
[4]; single values
  MMP-1: 87.0 ng/mL and 77.4 ng/mL
[5]; 25 μM test substance
  RLU 1: 13396 RLU
  RLU 2: 12243 RLU
  RLU 3: 12859 RLU
  RLU specific: 10825 RLU
  Mean: 12833 RLU
  % Activation: 86.48%
[5]; 50 μM test substance
  RLU 1: 14303 RLU
  RLU 2: 13124 RLU
  RLU 3: 11985 RLU
  RLU specific: 11130 RLU
  Mean: 13137 RLU
  % Activation: 88.92%
[6]; 25 μM test substance
  Measure 1: 756943
  Measure 2: 549324
  Measure 3: 384251
  RFU specific: 557192 RFU
  Mean: 563506
  % Glucose uptake: 64.1%
[6]; 50 μM test substance
  Measure 1: 501977
  Measure 2: 642949
  Measure 3: 529620
  RFU specific: 551868 RFU
  Mean: 558182
  % Glucose uptake: 63.5%
